Patent US10342796B2, “Acrylanilide derivative, preparation method, and applications thereof in pharmacy” (Ancureall Pharmaceutical (Shanghai) Co., Ltd., priority 2015, dated 2019)
Like-named read-outs stand apart in the source and are kept apart here.

Tests used:
Assay in all cases: Growth inhibition GI50 in vitro (CCK8/MTT, 72 h)
H1975 (EGFR L858R/T790M) = type: cell-based, human; conditions: Homo sapiens, NCI-H1975
HCC827 (EGFR dE746-A750) = type: cell-based, human; conditions: Homo sapiens
PC-9 (EGFR dE746-A750) = type: cell-based, human; conditions: Homo sapiens
[1] = test system: PC-9ER (EGFR delE746-A750/T790M); type: cell-based, human; conditions: Homo sapiens, PC-9/ER; EGFR mutant cell line; range of GI50; read-out: GI50 PC9ER
N87 (HER2 Amp) = type: cell-based, human; conditions: Homo sapiens
AU565 (Her2 amp) = type: cell-based, human; conditions: Homo sapiens
SK-BR-3 (Her2 amp) = type: cell-based, human; conditions: Homo sapiens
H292 (EGFR WT) = type: cell-based; conditions: Homo sapiens, NCI-H292
[2] = test system: A431 (EGFR WT, amplification and high expression); type: cell-based, human; conditions: Homo sapiens, A-431
A549 (EGFR WT) = type: cell-based, human; conditions: Homo sapiens
[3] = test system: H1299 (EGFR wt, Nras Q61K); type: cell-based, human; conditions: Homo sapiens, NCI-H1299
[4] = test system: H460 (EGFR wt, Kras G61H); type: cell-based, human; conditions: Homo sapiens, NCI-H460
Calu-3 (Her2 amp) = type: cell-based; conditions: Homo sapiens
Procedure: Human lung adenocarcinoma cell line Calu-3 (ATCC) was cultured with 1×MEM complete medium (10% FBS, 1% double-antibiotics, 1% NEAA (Gibco), 2 mM glutamine and 1 mM of sodium pyruvate). Human breast cancer cell line SK-BR-3 was cultured with McCOY'S5A complete medium (10% FBS). Human colon cancer cell line SNU1040 (HER2 V777M positive) (ATCC) and human bronchoalveolar adenocarcinoma cell line NCI-H1781 (expressing HER2 exon 20 G776VC mutation) (ATCC) were cultured with 1×RPMI1640 complete medium (10% FBS), respectively.
The suspension cells were collected by centrifugation. The supernatant was discard and the cell pellet was resuspended and counted. Different cell concentrations (5˜10×10^4 cells/mL) were prepared according to the growth cycle of each cell line and then seeded on a 96-well plate (Corning), 100 μL/well. The cells were incubated over night at 37° C., 5% CO2. The compounds were added to the cells on the second day with 2 wells in parallel. The final concentration of organic solvent shall not exceed 1%. The cells were continually incubated for 72 h, and then subjected to MTT assay.
The present compounds and the reference compounds were dissolved with DMSO (Sigma), respectively. […] The storage concentration of compounds was 10 mM and kept at −20° C. They were diluted by 2 times or 10 times with serial dilution before using.
Dojindo CCK8 reagent kit was used as MTT assay. […] FC meter was used as microplate reader.
Adherent cell culture medium was discard and immediately replaced with fresh prepared medium which contains 10% CCK8 reagent (100 μL/well). For the suspension cells, CCK8 was directly added to 10% of the final concentration. The cells were continually incubated for 1˜4 h. When the color of control wells turned to dark yellow, the absorption value was measured at OD450 nm. The cell growth rate was calculated according to the following formula: cell growth rate (%)=100*(T−T0)/(C−T0), T=optical density of drug treatment cell well—optical density of blank control well; T0=optical density of cell well before drug treatment—optical density of blank control well; C=optical density of cell well of solvent control group—optical density of blank control well. […] The experiment was independently repeated 1˜3 times, and subject to biological statistical analysis.

[5] = EGFR mutant cell line, range of GI50, read-out: GI50 H1975
[6] = H1975, EGFR L858R/T790M, read-out: GI50
[7] = HCC827, EGFR mutant cell line, range of GI50, read-out: GI50 HCC827
[8] = HCC827, EGFR dE746-A750, read-out: GI50
[9] = EGFR mutant cell line, range of GI50, read-out: GI50 PC-9
[10] = PC-9, EGFR dE746-A750, read-out: GI50
[11] = HER2 positive cell line, range of GI50, read-out: GI50 N87
[12] = N87, EGFR wt, Her2 amp, read-out: GI50
[13] = AU565, HER2 positive cell line, range of GI50, read-out: GI50 AU-565
[14] = AU565, EGFR wt, Her2 amp, read-out: GI50
[15] = SK-BR-3, HER2 positive cell line, range of GI50, read-out: GI50 SK-BR-3
[16] = EGFR wild type cell line, range of GI50, read-out: GI50 A431
[17] = A549, EGFR wild type cell line, range of GI50, read-out: GI50 A549
[18] = A549, EGFR wt, Kras G12S, read-out: GI50
[19] = EGFR wild type cell line, range of GI50, read-out: GI50 H1299
[20] = H1299, EGFR wt, Nras Q61K, read-out: GI50
[21] = EGFR wild type cell line, range of GI50, read-out: GI50 H460
[22] = H460, EGFR wt, Kras G61H, read-out: GI50
[23] = Table 15, 1000 nM to 0.03 nM serial dilution, read-out: GI50 H1975 (EGFR L858R/T790M)
[24] = Table 15, 1000 nM to 0.03 nM serial dilution, read-out: GI50 PC-9 (EGFR dE746-A750)
[25] = Table 16, 1000 nM to 0.03 nM serial dilution, read-out: GI50 N87 (HER2 amp)
[26] = Calu-3, Table 16, 1000 nM to 0.03 nM serial dilution, read-out: GI50 Calu3 (HER2 amp)
[27] = Table 15, 1000 nM to 0.03 nM serial dilution, read-out: GI50 H292 (EGFR WT)
[28] = A549, Table 15, 1000 nM to 0.03 nM serial dilution, read-out: GI50 A549 (EGFR WT)

| SMILES | GI50 (H1975 (EGFR L858R/T790M); [5]) [nM] | GI50 (H1975 (EGFR L858R/T790M); [6]) [nM] | GI50 (HCC827 (EGFR dE746-A750); [7]) [nM] | GI50 (HCC827 (EGFR dE746-A750); [8]) [nM] | GI50 (PC-9 (EGFR dE746-A750); [9]) [nM] | GI50 (PC-9 (EGFR dE746-A750); [10]) [nM] | GI50 [1] [nM] | GI50 (N87 (HER2 Amp); [11]) [nM] | GI50 (N87 (HER2 Amp); [12]) [nM] | GI50 (AU565 (Her2 amp); [13]) [nM] | GI50 (AU565 (Her2 amp); [14]) [nM] | GI50 (SK-BR-3 (Her2 amp); [15]) [nM] | GI50 (H292 (EGFR WT); H292, EGFR wt, read-out: GI50) [nM] | GI50 ([2]; A431, EGFR wt, read-out: GI50) [nM] | GI50 [2, 16] [nM] | GI50 (A549 (EGFR WT); [17]) [nM] | GI50 (A549 (EGFR WT); [18]) [nM] | GI50 [3, 19] [nM] | GI50 [3, 20] [nM] | GI50 [4, 21] [nM] | also measured |
| --- | --- | --- | --- | --- | --- | --- | --- | --- | --- | --- | --- | --- | --- | --- | --- | --- | --- | --- | --- | --- | --- |
| C=CC(=O)Nc1cc(Nc2nccc(-n3cnc4ccccc43)n2)c(OC)cc1N(C)CCN(C)C [Compound 106] | 10 to 100 | 15.2 | 10 to 100 | 12.6 | 10 to 100 | 15.6 | 10 to 100 | 10 to 100 | 23.6 | 10 to 100 | 19.5 | 10 to 100 | > 1000 | 498 | 100 to 1000 | > 1000 | > 1000 | > 1000 | > 1000 | > 1000 | GI50 (SK-BR-3 (Her2 amp); SK-BR-3, EGFR wt, Her2 amp, read-out: GI50): 101 nM; GI50 [4, 22]: > 1000 nM |
| C=CC(=O)Nc1cc(Nc2nccc(-n3ccc4ccc(F)cc43)n2)c(OC)cc1N(C)CCN(C)C [Compound 63, N-(5-(4-(6-fluoro-1H-indol-1-yl)-pyrimidin-2-ylamino)-2-((2-(dimethylamino)ethyl)-methyl-amino)-4-methoxyl-phenyl)-acrylamide] | 10 to 100 |  | < 10 |  | < 10 |  | 10 to 100 | 10 to 100 |  | 100 to 1000 |  | 100 to 1000 |  |  | 100 to 1000 | > 1000 |  | > 1000 |  | > 1000 |  |
| C=CC(=O)Nc1cc(Nc2nccc(-c3cn(C)c4ccccc34)n2)c(OC)cc1N(C)CCN(C)C [AZD9291, reference compound] |  | 15.6 |  | 15.6 |  | 13.9 |  |  | 234 |  | 312 |  | > 1000 | […] |  |  | > 1000 |  | > 1000 |  | GI50 (H1975 (EGFR L858R/T790M); [23]): 15.6 nM; GI50 (PC-9 (EGFR dE746-A750); [24]): 13.9 nM; GI50 (N87 (HER2 Amp); [25]): 219 nM; GI50 (SK-BR-3 (Her2 amp); SK-BR-3): 643 nM; GI50 (Calu-3 (Her2 amp); [26]): 657 nM; GI50 (Calu-3 (Her2 amp); Calu-3, EGFR wt, Her2 amp, read-out: GI50): 686 nM; GI50 (H292 (EGFR WT); [27]): > 1000 nM; GI50 (A549 (EGFR WT); [28]): > 1000 nM; GI50 [4, 22]: > 1000 nM |
| C=CC(=O)Nc1cc(Nc2cc(Nc3cc(F)c(OC)c(Cl)c3)ncn2)c(OC)cc1N(C)CCN(C)C [Compound 236, N-(5-(6-(3-chloro-5-fluoro-4-methoxyphenylamino)-pyrimidin-4-yl-amino)-2-((2-dimethylamino-ethyl)-methyl-amino)-4-methoxyl-phenyl)-acrylamide] |  |  |  |  |  |  |  |  |  |  |  |  |  |  |  |  |  |  |  |  | GI50 (H1975 (EGFR L858R/T790M); Table 13, 72 h, read-out: Range of GI50 H1975 (EGFR L858R/T790M)): < 10 nM; GI50 (H1975 (EGFR L858R/T790M); [23]): 3.88 nM; GI50 (PC-9 (EGFR dE746-A750); Table 13, 72 h, read-out: Range of GI50 PC-9 (EGFR dE746-A750)): < 10 nM; GI50 (PC-9 (EGFR dE746-A750); [24]): 1.49 nM; GI50 (N87 (HER2 Amp); Table 13, 72 h, read-out: Range of GI50 N87 (HER2 Amp)): < 10 nM; GI50 (N87 (HER2 Amp); [25]): 0.82 nM; GI50 (Calu-3 (Her2 amp); [26]): 1.46 nM; GI50 (H292 (EGFR WT); [27]): > 1000 nM; GI50 (A549 (EGFR WT); A549, Table 13, 72 h, read-out: Range of GI50 A549 (EGFR WT)): > 1000 nM; GI50 (A549 (EGFR WT); [28]): > 1000 nM |
| C=CC(=O)Nc1cc(Nc2ncnc(Nc3cccc(Br)c3)n2)c(OC)cc1N(C)CCN(C)C [Compound 115, N-(5-(4-(3-bromo-phenylamino)-[1,3,5]triazin-2-ylamino)-2-((2-dimethylamino-ethyl)-methyl-amino)-4-methoxyl-phenyl)-acrylamide] | 10 to 100 |  | < 10 |  | < 10 |  | < 10 | < 10 |  | 10 to 100 |  | < 10 |  |  | 100 to 1000 | > 1000 |  | > 1000 |  | > 1000 |  |
